From paper PMC11642016 (International Journal of Molecular Sciences, 2024)

Experiment: in vitro
Details: human, HEK293T WT Cell viability (% of controll), dose–response, individual replicates
Protocol: Primary fibroblast cultures were prepared from human skin biopsies and maintained in DMEM supplemented with 10% FBS, 1% penicillin-streptomycin, and 1% MEM Non-Essential Amino Acids Solution (Thermo Fisher Scientific). […] All cell lines were cultured in a humidified atmosphere at 37 °C and 5% CO2, passaged twice a week, and the experiments were performed on cells between passage 5 and 15. The cell lines were routinely screened for the absence of mycoplasma infection (DAPI staining).
The effects of the synthesized compounds on cell viability were measured using the CellTiter-Glo® luminescent cell viability assay (Promega, Madison, WI, USA), according to the manufacturer’s instructions. Briefly, cells were seeded onto a flat-bottomed, white 96-well plate (BRANDplates, cat. no.: 781965)), with the following densities: PANC-1: 750 cells/well, Fadu: 2000 cells/well, primary fibroblasts: 2000 cells/well, HEK293T WT: 1000 cells/well, HEK293T CLPP^−/−: 2500 cells/well. After seeding, cells were incubated for a further 48 h before treatment. Cells were treated with the compounds for 72 h. Three concentrations (25.0 µM; 8.3 µM; 2.8 µM) were applied during the initial cell viability screening, while for the determination of dose–response curves, 1.5-fold serially diluted compound concentrations were applied (range: 26 µM–0.7 µM). After treatment, the luminescence signal was recorded using a microplate reader (BioTek Synergy 2 Multi-Mode Reader, BioTek, Winooski, VT, USA).
Data analysis was performed using GraphPad Prism 9.5.0 software (GraphPad Software, San Diego, CA, USA). […] The dose–response curves were generated by four-parameter nonlinear regression, and the IC50 values were determined as the means ± SEM of the best-fit values of 3 independent measurements. The R^2 values were consistently above 0.93, indicating a strong fit of the model to the experimental data (Supplementary S.89). […] Dunnett’s post hoc test was applied to adjust for multiple comparisons, minimizing the likelihood of false positive results. Assumptions for ANOVA, including normality (assessed via QQ plots) and homogeneity of variance (tested using the Brown–Forsythe test), were verified. The following significance levels were applied: * p < 0.05, ** p < 0.01, *** p < 0.001, **** p < 0.0001. […] The tumor selectivity of the compounds was quantitatively characterized by the selectivity index (SI). This parameter was calculated as the ratio of the average best-fit IC50 value for primary fibroblasts and the best-fit IC50 value for the corresponding tumor cells (PANC-1 or Fadu).

Cc1ccccc1CN1C(=O)C2=C(CCN(Cc3ccccc3)C2)N2CCN=C12 [ONC201, reference compound]
viability at 72 h, 0.6 µM (0.6 μM): 60%
viability at 72 h, 1 µM (1.0 μM): 30%
viability at 72 h, 1.6 µM (1.6 μM): 28%
viability at 72 h, 2.5 µM (2.5 μM): 21%
viability at 72 h, 4 µM (4.0 μM): 19%
viability at 72 h, 6.4 µM (6.4 μM): 18%
viability at 72 h, 16.25 µM (16.25 μM): 15%
viability at 72 h, 26 µM (26 μM): 15%
